Assay results as given in the Kinase Knowledgebase extract (Sharma et al. 2016).

Key:
[1] = target: EGFR (murine) (UniProt P00533); conditions: f/l herc cells
[2] = target: EGFR (human) (UniProt P00533); conditions: kb
Chain of EGFR (human) (P00533 whole entry, looked up): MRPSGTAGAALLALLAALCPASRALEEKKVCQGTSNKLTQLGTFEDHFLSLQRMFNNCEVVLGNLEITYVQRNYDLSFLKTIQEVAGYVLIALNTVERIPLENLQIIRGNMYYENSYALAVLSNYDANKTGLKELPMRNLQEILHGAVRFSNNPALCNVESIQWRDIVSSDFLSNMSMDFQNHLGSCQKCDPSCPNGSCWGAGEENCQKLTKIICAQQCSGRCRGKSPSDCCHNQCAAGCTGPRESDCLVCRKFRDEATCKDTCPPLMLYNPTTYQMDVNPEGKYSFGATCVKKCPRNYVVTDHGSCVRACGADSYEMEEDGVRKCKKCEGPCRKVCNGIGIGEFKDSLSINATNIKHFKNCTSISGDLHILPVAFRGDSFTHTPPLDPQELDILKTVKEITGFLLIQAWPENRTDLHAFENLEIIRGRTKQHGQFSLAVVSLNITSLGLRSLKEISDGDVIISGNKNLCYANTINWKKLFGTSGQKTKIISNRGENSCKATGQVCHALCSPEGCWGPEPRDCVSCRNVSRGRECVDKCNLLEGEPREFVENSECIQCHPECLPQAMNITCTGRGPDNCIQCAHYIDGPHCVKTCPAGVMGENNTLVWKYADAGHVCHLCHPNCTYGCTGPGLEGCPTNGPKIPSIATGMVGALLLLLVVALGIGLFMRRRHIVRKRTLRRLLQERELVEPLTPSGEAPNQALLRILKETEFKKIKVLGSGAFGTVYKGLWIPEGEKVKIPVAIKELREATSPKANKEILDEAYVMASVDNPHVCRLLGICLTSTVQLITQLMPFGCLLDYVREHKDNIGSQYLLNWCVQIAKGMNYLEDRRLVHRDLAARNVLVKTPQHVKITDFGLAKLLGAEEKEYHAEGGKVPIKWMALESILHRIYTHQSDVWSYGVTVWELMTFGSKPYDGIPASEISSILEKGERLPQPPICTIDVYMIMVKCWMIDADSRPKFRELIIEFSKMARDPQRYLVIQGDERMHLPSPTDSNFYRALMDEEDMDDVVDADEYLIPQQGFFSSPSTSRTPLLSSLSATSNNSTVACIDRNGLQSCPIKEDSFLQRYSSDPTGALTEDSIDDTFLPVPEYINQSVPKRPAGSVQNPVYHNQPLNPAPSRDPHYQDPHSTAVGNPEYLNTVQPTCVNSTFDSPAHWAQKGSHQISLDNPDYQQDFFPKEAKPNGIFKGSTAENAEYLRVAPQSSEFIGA

Chain of EGFR (murine) (P00533 whole entry, looked up): as above

| SMILES | IC50 [1] [nM] | IC50 [2] [nM] |
| --- | --- | --- |
| COC(=O)[C@H]1CC[C@H](Nc2ncc3ncnc(Nc4cc(Cl)c(N)c(Cl)c4)c3n2)CC1 | > 10 |  |
| CC(C)(C)OC(=O)N1CCC(Nc2ncc3ncnc(Nc4ccc(F)c(Cl)c4)c3n2)CC1 | > 10 |  |
| Nc1c(Cl)cc(Nc2ncnc3cnc(N[C@H]4CC[C@H](C(=O)N5CCCC5)CC4)nc23)cc1Cl | > 1 | 100 to 1000 |
| CN1CCC(N(C)c2ncc3ncnc(Nc4ccc(F)c(Cl)c4)c3n2)CC1 | 10 |  |
| Fc1ccc(Nc2ncnc3cnc(NC4CCCN(Cc5ccccc5)CC4)nc23)cc1Cl (stereo not drawn) | > 1 |  |
| O=C(N[C@H]1CC[C@H](CNc2ncc3ncnc(Nc4ccc(F)c(Cl)c4)c3n2)CC1)OCc1ccccc1 | > 10 |  |
| CC(C)(C)OC(=O)N1CCN(CCNc2ncc3ncnc(Nc4ccc(F)c(Cl)c4)c3n2)CC1 | > 1 |  |
| Nc1c(Cl)cc(Nc2ncnc3cnc(N[C@H]4CC[C@H](C(=O)O)CC4)nc23)cc1Cl | > 1 | 100 to 1000 |
| CC(C)(C)OC(=O)N1CCC(CNc2ncc3ncnc(Nc4ccc(F)c(Cl)c4)c3n2)CC1 | > 20 |  |
| Fc1ccc(Nc2ncnc3cnc(NC4CN5CCC4CC5)nc23)cc1Cl (stereo not drawn) | > 10 | 100 to 1000 |
| Fc1ccc(Nc2ncnc3cnc(NCC45CCN(CC4)CC5)nc23)cc1Cl | > 1 |  |
| O=C(N1CCOCC1)N1CCN(CCNc2ncc3ncnc(Nc4ccc(F)c(Cl)c4)c3n2)CC1 | > 1 |  |
| CC1CC(c2ccc(O)cc2)CN1c1ncc2ncnc(Nc3ccc(F)c(Cl)c3)c2n1 (stereo not drawn) | > 1 |  |
| Nc1ccc(CNc2ncc3ncnc(Nc4ccc(F)c(Cl)c4)c3n2)cc1 | > 10 |  |
| CCN(CC)CC(C)Nc1ncc2ncnc(Nc3ccc(F)c(Cl)c3)c2n1 (stereo not drawn) | > 1 | 100 to 1000 |
| O[C@H]1CC[C@H](Nc2ncc3ncnc(Nc4ccc(-c5ccccc5)cc4)c3n2)CC1 | > 10 |  |
| Nc1cc(Cl)c(Nc2ncnc3cnc(N[C@H]4CC[C@H](O)CC4)nc23)cc1Cl | > 10 |  |
| NCCCCNc1ncc2ncnc(Nc3ccc(F)c(Cl)c3)c2n1 | > 10 |  |
| NCCCCCNc1ncc2ncnc(Nc3ccc(F)c(Cl)c3)c2n1 | > 1 |  |
| Nc1c(Br)cc(Nc2ncnc3cnc(N4CCC(N)CC4)nc23)cc1Br | > 1 |  |
| O[C@H]1CC[C@H](Nc2ncc3ncnc(Nc4cccc(Oc5ccccc5)c4)c3n2)CC1 | > 10 |  |
| Nc1c(Cl)cc(Nc2ncnc3cnc(N[C@H]4CC[C@H](C(=O)N5CCOCC5)CC4)nc23)cc1Cl | > 1 | 100 to 1000 |
| NCC1CCC(CNc2ncc3ncnc(Nc4ccc(F)c(Cl)c4)c3n2)CC1 (stereo not drawn) | > 1 | 100 to 1000 |
| OCc1cccc(Nc2ncnc3cnc(N[C@H]4CC[C@H](O)CC4)nc23)c1 | > 1 |  |
| COC(=O)[C@H]1CC[C@H](Nc2ncc3ncnc(Nc4ccc(F)c(Cl)c4)c3n2)CC1 | > 10 |  |

The next lines start with the values.

| IC50 [1] [nM] | IC50 [2] [nM] | SMILES |
| --- | --- | --- |
| > 10 |  | O=CNC1CCN(c2ncc3ncnc(Nc4ccc(F)c(Cl)c4)c3n2)CC1 |
| > 1 |  | Fc1ccc(Nc2ncnc3cnc(N4CCCCCC4)nc23)cc1Cl |
| > 1 |  | Fc1ccc(Nc2ncnc3cnc(N4CCCCC4)nc23)cc1Cl |
| > 10 |  | CC(C)(C)OC(=O)N1CCCC(Nc2ncc3ncnc(Nc4ccc(F)c(Cl)c4)c3n2)CC1 (stereo not drawn) |
| > 10 |  | NCCCNc1ncc2ncnc(Nc3ccc(F)c(Cl)c3)c2n1 |
| > 1 |  | CN1CCC(C2CCN(c3ncc4ncnc(Nc5ccc(F)c(Cl)c5)c4n3)CC2)CC1 |
| > 10 |  | Fc1ccc(Nc2ncnc3cnc(N4CCCNCC4)nc23)cc1Cl |
| > 1 |  | NC[C@H]1CC[C@H](Nc2ncc3ncnc(Nc4ccc(F)c(Cl)c4)c3n2)CC1 |
| > 10 |  | CC(C)(N)CNc1ncc2ncnc(Nc3ccc(F)c(Cl)c3)c2n1 |
| > 10 |  | CC(N)CNc1ncc2ncnc(Nc3ccc(F)c(Cl)c3)c2n1 (stereo not drawn) |
| > 1 | 100 to 1000 | CC(CN1CCCCC1)Nc1ncc2ncnc(Nc3ccc(F)c(Cl)c3)c2n1 (stereo not drawn) |
| > 1 |  | Fc1ccc(Nc2ncnc3cnc(NC4CCCNCC4)nc23)cc1Cl (stereo not drawn) |
| > 1 |  | NCC1CCCC(CNc2ncc3ncnc(Nc4ccc(F)c(Cl)c4)c3n2)C1 (stereo not drawn) |
| > 1 |  | CN1CCN(C2CCC(Nc3ncc4ncnc(Nc5ccc(F)c(Cl)c5)c4n3)CC2)CC1 (stereo not drawn) |
| > 20 |  | COc1ccccc1N1CCN(c2ncc3ncnc(Nc4ccc(F)c(Cl)c4)c3n2)CC1 |
| > 20 |  | Fc1ccc(Nc2ncnc3cnc(NCC4CCNCC4)nc23)cc1Cl |
| > 1 |  | CN1CCC(CNc2ncc3ncnc(Nc4ccc(F)c(Cl)c4)c3n2)CC1 |

| IC50 [1] [nM] | IC50 [2] [nM] | SMILES |
| --- | --- | --- |
| > 10 |  | COC(=O)NC1CCN(c2ncc3ncnc(Nc4ccc(F)c(Cl)c4)c3n2)CC1 |
| > 1 | 100 to 1000 | NCC1CCN(c2ncc3ncnc(Nc4ccc(F)c(Cl)c4)c3n2)CC1 |
| > 10 | 100 to 1000 | COC(=O)N1CCC(Nc2ncc3ncnc(Nc4ccc(F)c(Cl)c4)c3n2)CC1 |
| > 1 |  | Nc1ncc2ncnc(Nc3ccc(F)c(Cl)c3)c2n1 |
| > 1 |  | N#CN1CCC(Nc2ncc3ncnc(Nc4ccc(F)c(Cl)c4)c3n2)CC1 |
| > 1 | 100 to 1000 | Fc1ccc(Nc2ncnc3cnc(N4CCC(C5CCNCC5)CC4)nc23)cc1Cl |
| > 20 |  | Fc1ccc(Nc2ncnc3cnc(N4CCC(N5CCOCC5)CC4)nc23)cc1Cl |
| > 20 |  | COC(CNc1ncc2ncnc(Nc3ccc(F)c(Cl)c3)c2n1)OC |
| > 1 |  | CCN(CCO)c1ncc2ncnc(Nc3ccc(F)c(Cl)c3)c2n1 |
| > 10 |  | NCCNc1ncc2ncnc(Nc3ccc(F)c(Cl)c3)c2n1 |
| > 1 |  | NC1CCCN(c2ncc3ncnc(Nc4ccc(F)c(Cl)c4)c3n2)CC1 (stereo not drawn) |
| > 20 |  | COc1cccc(N2CCN(c3ncc4ncnc(Nc5ccc(F)c(Cl)c5)c4n3)CC2)c1 |
| > 10 |  | CN1CCCN(c2ncc3ncnc(Nc4ccc(F)c(Cl)c4)c3n2)CC1 |
| 10 |  | Fc1ccc(Nc2ncnc3cnc(N4CCC(N5CCCC5)CC4)nc23)cc1Cl |
| > 1 |  | OC1CCN(c2ncc3ncnc(Nc4ccc(F)c(Cl)c4)c3n2)CC1 |
| > 1 |  | NCC1CCCN(c2ncc3ncnc(Nc4ccc(F)c(Cl)c4)c3n2)C1 (stereo not drawn) |
